According to ChEMBL document CHEMBL1156861, “Synthesis and structure-activity relationship of substitutions at the C-1 position of Delta9-tetrahydrocannabinol” (Bioorg Med Chem Lett, 2010):
pKi: −log10 of the molar value.

How the values were obtained:
Cannabinoid receptor 2 = Cannabinoid receptor 2 (Homo sapiens, UniProt P34972); assay: Displacement of [3H]CP-55940 from CB2 receptor
[1] = Selectivity ratio of Ki for CB1 receptor to Ki for CB2 receptor
Cannabinoid receptor 1 = Cannabinoid receptor 1 (Homo sapiens, UniProt P21554); assay: Displacement of [3H]CP-55940 from CB1 receptor
Sequence of Cannabinoid receptor 1 (P21554 whole entry): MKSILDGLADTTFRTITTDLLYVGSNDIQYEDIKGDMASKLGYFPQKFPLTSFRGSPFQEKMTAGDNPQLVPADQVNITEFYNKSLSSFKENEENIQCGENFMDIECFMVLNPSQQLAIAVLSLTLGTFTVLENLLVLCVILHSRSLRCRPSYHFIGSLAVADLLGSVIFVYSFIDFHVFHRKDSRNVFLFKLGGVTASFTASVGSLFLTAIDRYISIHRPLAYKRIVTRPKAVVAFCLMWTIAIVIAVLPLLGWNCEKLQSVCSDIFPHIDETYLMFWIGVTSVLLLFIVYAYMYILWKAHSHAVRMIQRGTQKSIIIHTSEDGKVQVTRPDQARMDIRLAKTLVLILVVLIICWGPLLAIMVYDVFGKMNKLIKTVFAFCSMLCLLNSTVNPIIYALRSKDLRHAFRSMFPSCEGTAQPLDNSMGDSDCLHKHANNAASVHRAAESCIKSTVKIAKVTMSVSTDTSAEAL

Sequence of Cannabinoid receptor 2 (P34972 whole entry): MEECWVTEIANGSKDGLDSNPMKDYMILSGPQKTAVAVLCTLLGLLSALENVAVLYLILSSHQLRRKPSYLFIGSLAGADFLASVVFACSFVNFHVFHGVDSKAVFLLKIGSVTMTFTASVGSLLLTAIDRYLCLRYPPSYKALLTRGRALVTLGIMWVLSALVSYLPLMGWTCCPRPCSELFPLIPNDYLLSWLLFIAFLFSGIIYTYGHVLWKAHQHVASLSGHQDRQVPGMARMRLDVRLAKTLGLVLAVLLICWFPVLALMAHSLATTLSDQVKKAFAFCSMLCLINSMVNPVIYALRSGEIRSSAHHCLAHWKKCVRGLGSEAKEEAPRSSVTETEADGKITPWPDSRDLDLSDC

SMILES	pKi (Cannabinoid receptor 2)	Ratio Ki [1]	pKi (Cannabinoid receptor 1)
CCCCCc1cc(N)c2c(c1)OC(C)(C)[C@@H]1CCC(C)=C[C@@H]21	6.67	3	6.21
CCCCCCC(C)(C)c1cc(NC(C)=O)c2c(c1)OC(C)(C)[C@@H]1CCC(C)=C[C@@H]21	6.67	6	5.87
CCCCCc1cc2c(c(N(C)C)c1)[C@@H]1C=C(C)CC[C@H]1C(C)(C)O2	< 5.52		< 5.52
CCCCCc1cc2c(c(SC)c1)[C@@H]1C=C(C)CC[C@H]1C(C)(C)O2	6.33	2	6.02
CCCCCc1cc2c(c(C(=O)NC(CO)CO)c1)[C@@H]1C=C(C)CC[C@H]1C(C)(C)O2	5.70		< 5.52
CCCCCc1cc(NC(=O)CN(C)C)c2c(c1)OC(C)(C)[C@@H]1CCC(C)=C[C@@H]21	< 5.52		< 5.52
CCCCCc1cc2c(c(C(=O)O)c1)[C@@H]1C=C(C)CC[C@H]1C(C)(C)O2	< 5.52		< 5.52
CCCCCc1cc2c(c(C(=O)NCC(N)=O)c1)[C@@H]1C=C(C)CC[C@H]1C(C)(C)O2	< 5.52		< 5.52
CCCCCc1cc(C#N)c2c(c1)OC(C)(C)[C@@H]1CCC(C)=C[C@@H]21	6.41	3	5.76
CCCCCCC(C)(C)c1cc(NS(C)(=O)=O)c2c(c1)OC(C)(C)[C@@H]1CCC(C)=C[C@@H]21	6.59	7	5.74
CCCCCc1cc2c(c(C(=O)N(C)C)c1)[C@@H]1C=C(C)CC[C@H]1C(C)(C)O2	5.92		< 5.52
CCCCCc1cc2c(c([S+](C)[O-])c1)[C@@H]1C=C(C)CC[C@H]1C(C)(C)O2 (single isomer, unassigned; diastereomer B)	< 5.52		< 5.52
CCCCCc1cc(NC(=O)OC)c2c(c1)OC(C)(C)[C@@H]1CCC(C)=C[C@@H]21	5.85		< 5.52
CCCCCCC(C)(C)c1cc(NC(=O)NC)c2c(c1)OC(C)(C)[C@@H]1CCC(C)=C[C@@H]21	6.59	1	6.48
CCCCCc1cc(NC(N)=O)c2c(c1)OC(C)(C)[C@@H]1CCC(C)=C[C@@H]21	< 5.52		< 5.52
CCCCCCC(C)(C)c1cc(NC(=O)c2ccncc2)c2c(c1)OC(C)(C)[C@@H]1CCC(C)=C[C@@H]21	5.96	> 3	< 5.52
CCCCCc1cc2c(c(C(N)=O)c1)[C@@H]1C=C(C)CC[C@H]1C(C)(C)O2	5.66		< 5.52
CCCCCCC(C)(C)c1cc(O)c2c(c1)OC(C)(C)[C@@H]1CCC(C)=C[C@@H]21	9.70	1	9.62
CCCCCc1cc2c(c([S+](C)[O-])c1)[C@@H]1C=C(C)CC[C@H]1C(C)(C)O2 (single isomer, unassigned; diastereomer A)	5.71		< 5.52
CCCCCc1cc(CNC(C)=O)c2c(c1)OC(C)(C)[C@@H]1CCC(C)=C[C@@H]21	5.82		< 5.52
CCCCCc1cc(NS(C)(=O)=O)c2c(c1)OC(C)(C)[C@@H]1CCC(C)=C[C@@H]21	5.76		< 5.52
CCCCCc1cc(NC(C)=O)c2c(c1)OC(C)(C)[C@@H]1CCC(C)=C[C@@H]21	5.85		< 5.52
CCCCCc1cc(CNS(C)(=O)=O)c2c(c1)OC(C)(C)[C@@H]1CCC(C)=C[C@@H]21	< 5.52		< 5.52
CCCCCc1cc2c(c(C(=O)NC)c1)[C@@H]1C=C(C)CC[C@H]1C(C)(C)O2	5.90		< 5.52
CCCCCCC(C)(C)c1cc(N)c2c(c1)OC(C)(C)[C@@H]1CCC(C)=C[C@@H]21	8.54	4	7.93
CCCCCCC(C)(C)c1cc(C#N)c2c(c1)OC(C)(C)[C@@H]1CCC(C)=C[C@@H]21	8.28	13	7.17
CCCCCc1cc(CN)c2c(c1)OC(C)(C)[C@@H]1CCC(C)=C[C@@H]21	< 5.52		< 5.52
CCCCCc1cc(CNC(N)=O)c2c(c1)OC(C)(C)[C@@H]1CCC(C)=C[C@@H]21	6.11		< 5.52
CCCCCc1cc(NC(=O)c2ccncc2)c2c(c1)OC(C)(C)[C@@H]1CCC(C)=C[C@@H]21	5.75		< 5.52
CCCCCc1cc(NC(=O)NC)c2c(c1)OC(C)(C)[C@@H]1CCC(C)=C[C@@H]21	5.69		< 5.52
